Measured values taken from PMC9658513, “Discovery of Compounds That Selectively Repress the Amyloidogenic Processing of the Amyloid Precursor Protein: Design, Synthesis and Pharmacological Evaluation of Diphenylpyrazoles” (International Journal of Molecular Sciences, 2022).
Like-named read-outs stand apart in the source and are kept apart here.

Legend:
Format in all cases: cell-based, human
[1] = tested on: p62/LC3; assay: Ratio between p62 and LC3 expression levels; conditions: compound at 3 µM, 24 h, SY5Y-APP^wt cells
From the text: Compounds from both series were selected to first determine the potential relationship between the repression of Aβ1–x production and the increased expression of LC3 and p62. […] We then also considered the ratio between the p62 and LC3 expression levels.
Figure 3 Effect of compounds 24, 33, 34, 57, 65, 67, 70, and 71 on the autophagic flux in SY5Y-APP^wt cells. […] Cell lysates were immunolabeled with the following antibodies: p62 (a), LC3 (b), and β-actin. Statistical significance was set at * p < 0.05, ** p < […], *[…], **** p < 0.0001, and ns as not significant.

[2] = tested on: Aβ1–42 peptide secretion; assay: Aβ1–42 secretion in cell medium by ELISA; conditions: SY5Y-APP^WT cells, 24 h treatment, mean ± SD of at least three experiments in triplicate
Summary of the method: (§1)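 SY5Y-APP^WT cells (SH-SY5Y human neuroblastoma stably expressing human wild-type APP695) were treated with compounds for 24 h in supplemented DMEM at 37 °C. Secreted Aβ1–40 and Aβ1–42 were quantified in the collected, centrifuged conditioned medium by ELISA, in pg/mL.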

[3] = tested on: AICD (APP intracellular domain); assay: AICD level by Western blotting in SY5Y-APP^WT cells; conditions: concentration increasing AICD 20-fold vs untreated control, read-out: AICD (C20)
Summary of the method: (§2)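 SH-SY5Y cells stably expressing human wild-type APP695 treated with compounds for 24 h at 37 °C. αCTF and AICD measured by Western blot of lysates (10 µg protein, 12% Bis-Tris gels) as band intensity; C20 is concentration raising these fragments 20-fold over control.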

[4] = tested on: Aβ1–40 peptide secretion; assay: Aβ1–40 secretion in cell medium by ELISA
Summary of the method: as §1

[5] = tested on: αCTF (APP carboxy-terminal fragment); assay: αCTF level by Western blotting in SY5Y-APP^WT cells; conditions: for EC (20-fold increase): concentration increasing αCTF 20-fold vs untreated control, SY5Y-APP^WT cells, read-out: αCTF (C20); for C20 for CTFα and AICD: CTFα and AICD together
Summary of the method: as §2

[6] = tested on: sAPPβ secretion; assay: sAPPβ secretion (MSD sAPPα/sAPPβ Multiplex Kit); conditions: SY5Y cells, mean ± SD of at least three experiments in triplicate
Procedure: (§3) A selection of compounds with several selected activities was performed including sAPPα and sAPPβ, which were further explored. […] The decrease in Aβ could result from a decrease in either β- or γ-secretase cleavage or an increase in the α-secretase cleavage of APP. Thus, medium concentrations of sAPPβ and sAPPα, which are the β- and α-secretase extramembrane shed APP fragments, were determined after cell drug treatments.
(§4) The human neuroblastoma cell line SY5Y-APP^695WT was maintained in Dulbecco’s modified Eagle medium (DMEM, high glucose, pyruvate—GIBCO, Life Technologies, Carlsbad, CA, USA) supplemented with 10% fetal bovine serum, 2 mM L-glutamine, 1 mM non-essential amino acids and penicillin/streptomycin (GIBCO, Life Technologies, Carlsbad, CA, USA) at 37 °C in a 5% CO2 humidified incubator [36]. For compound treatment, a 10 mM stock solution was diluted in freshly supplemented DMEM medium to obtain the precise final concentration of the drug. Cells were plated at a density of 5 × 10^5 cells per well into 12-well plates and cultured with 1 mL supplemented DMEM cell medium for 24 h before compound exposure. The following day, the cell medium was replaced with fresh medium containing the compounds diluted at the indicated concentrations. Cells were treated for 24 h. At the end of the treatments, the cell medium was collected and kept at −80 °C until use, cells were rinsed once with PBS and extracted in 100 µL of Laemmli buffer (10 mM Tris, 20% glycerol, and 2% sodium dodecyl sulfate) using a cell-scraper. The cell lysate was further sonicated (30 pulses of 0.5 s, 60 Hz) for 5 min. Total protein concentration was determined using the Pierce BCA Protein Assay Kit (Thermo Scientific, Waltham, MA, USA) according to the manufacturer’s instructions. Samples were stored at −80 °C until analysis.
Conditioned media of SY5Y-APP^695WT collected at the end of treatments were centrifuged at 1000× g for 5 min to eliminate cell debris.
(§5) Aβ1–40/Aβ1–42 peptides, Aβx–38/Aβx–40/Aβx–42, and sAPPα/sAPPβ concentrations in pg/mL were determined, respectively, using amyloid-beta 40 and 42 Human ELISA Kits (Invitrogen), the V-PLEX Plus Aβ Peptide Panel 1 (4G8) Kit (Meso Scale Diagnostics, MSD R©, Rockville, MD, USA), and the sAPPα/sAPPβ Multiplex Kit (Meso Scale Diagnostics, MSD R©, Rockville, MD, USA) according to the manufacturer’s instructions.

[7] = tested on: sAPPα; assay: sAPPα secretion (MSD sAPPα/sAPPβ Multiplex Kit); conditions: concentration increasing sAPPα 1.5-fold vs untreated control
Procedure: as §3
as §4, with “The cell lysate was further sonicated (30 pulses of 0.5 s, 60 Hz) for 5 min.” left out, “Samples were stored at −80 °C until analysis.” left out
as §5

[8] = Homo sapiens, SY5Y-APP^WT cells, 24 h treatment, mean ± SD of at least three experiments in triplicate, read-out: Aβ1–40 IC50
[9] = Homo sapiens, Aβ1–40 and Aβ1–42 not distinguished, read-out: IC50 for Aβ secretion (Aβ1–x production)

Row | Compound | IC50 ([2]; Homo sapiens) [nM] | IC50 [4, 8] [nM] | IC50 ([6]; Homo sapiens) [nM] | IC50 [4, 9] [nM] | IC50 [6] [nM] | IC50 [2] [nM] | IC50 ([4]; SY5Y-APP^WT cells, 24 h treatment, mean ± SD of at least three experiments in triplicate, read-out: Aβ1–40 IC50) [nM] | p62/LC3 [1] | EC (20-fold increase) ([3]; Homo sapiens) [µM] | EC (20-fold increase) ([5]; Homo sapiens) [µM] | C20 for CTFα and AICD [5] | sAPPα C1.5 [7] [µM] | EC (20-fold increase) [3] [µM] | EC (20-fold increase) [5] [µM]
1 | CN(C)CCCc1ccc(-c2nn(-c3ccc(CN(C)C)cc3)cc2CN(C)C)cc1 [Compound 24, 3-[4-[4-(Dimethylaminomethyl)-1-[4-(dimethylaminomethyl)phenyl] Pyrazol-3-yl]phenyl]-N,N-dimethyl-propan-1-amine] | 2500 ± 200 | 1500 ± 100 | – | – | – | – | – | 0.49 | 2.2 | 1.6 | – | – | – | –
2 | Cc1cn(-c2cccc(CO)c2)nc1-c1ccc(CN(C)CCCN(C)C)cc1 [Compound 57, (3-{3-[4-({[3-(Dimethylamino)propyl](methyl)amino}methyl)phenyl]-4-methyl-1H-pyrazol-1-yl}phenyl)methanol] | 3500 ± 800 | 2900 ± 1000 | – | – | – | – | – | 0.71 | 8.5 | > 10 | – | – | – | –
3 | Cc1cn(-c2cccc(CN(C)C)c2)nc1-c1ccc(CN(C)CCCN(C)C)cc1 [Compound 67, {[4-(1-{3-[(Dimethylamino)methyl]phenyl}-4-methyl-1H-pyrazol-3-yl)phenyl]methyl} [3-(Dimethylamino)propyl]methylamine] | 2100 ± 500 | 1300 ± 100 | 3200 ± 1400 | ~1000 | – | – | – | 0.51 | 1.2 | 1.4 | around 1 µM | – | – | –
4 | N′-[[4-[4-[3-(Dimethylamino)propyl]-3-[4-[3-(dimethylamino)propyl]phenyl] Pyrazol-1-yl]phenyl]methyl]-N,N,N′-trimethyl-propane-1,3-diamine [Compound 33] | – | – | – | – | 6800 ± 300 | 9700 ± 1200 | 9200 ± 400 | 0.98 | – | – | – | >10 | 8.9 | 6.1

Continued, in another order:

Row | IC50 ([2]; Homo sapiens) [nM] | IC50 [4, 8] [nM] | IC50 ([6]; Homo sapiens) [nM] | IC50 [4, 9] [nM] | IC50 [6] [nM] | IC50 [2] [nM] | IC50 ([4]; SY5Y-APP^WT cells, 24 h treatment, mean ± SD of at least three experiments in triplicate, read-out: Aβ1–40 IC50) [nM] | Compound | p62/LC3 [1] | EC (20-fold increase) ([3]; Homo sapiens) [µM] | EC (20-fold increase) ([5]; Homo sapiens) [µM] | C20 for CTFα and AICD [5] | sAPPα C1.5 [7] [µM] | EC (20-fold increase) [3] [µM] | EC (20-fold increase) [5] [µM]
5 | 2100 ± 400 | 2000 ± 700 | – | – | – | – | – | Cc1cn(-c2cccc(CN3CCN(C)CC3)c2)nc1-c1cccc(CN(C)C)c1 [Compound 65, N,N-dimethyl-1-[3-[4-methyl-1-[3-[(4-methylpiperazin-1-yl)methyl]phenyl]pyrazol-3-yl]phenyl]methanamine] | 0.63 | 2.8 | 1.7 | – | – | – | –
6 | 2100 ± 100 | 1500 ± 100 | – | – | – | – | – | Cc1cn(-c2cccc(CN(C)C)c2)nc1-c1cccc(CN(C)CCCN(C)C)c1 [Compound 70, N′-[[3-[1-[3-(Dimethylaminomethyl)phenyl]-4-methyl-pyrazol-3-yl]phenyl] Methyl]-N,N,N′-trimethyl-propane-1,3-diamine] | 0.30 | 1.7 | 1.3 | – | – | – | –
7 | 1700 ± 100 | 1200 ± 100 | 4000 ± 400 | ~1000 | – | – | – | Cc1cn(-c2cccc(CN3CCN(C)CC3)c2)nc1-c1cccc(CN(C)CCCN(C)C)c1 [Compound 71, N,N,N′-Trimethyl-N′-[[3-[4-methyl-1-[3-[(4-methylpiperazin-1-yl)methyl]phenyl]pyrazol-3-yl]phenyl]methyl]propane-1,3-diamine] | 0.34 | 1 | 0.7 | around 1 µM | – | – | –
